From PubChem BioAssay (NCI)
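Cells were grown in 96-well plates and exposed to each compound for 48 hours at five concentrations; endpoints were interpolated linearly between bracketing concentrations, or set to the highest concentration if not reached. GI50 marks 50% less growth. TGI denotes the concentration required for complete inhibition of growth.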

Columns and labels:
Test in all cases: DTP human tumour cell line panel, 48 h
EKVX NSCLC = tested on: EKVX NSCLC
MDA-MB-231 breast = tested on: MDA-MB-231 breast
SNB-19 CNS = tested on: SNB-19 CNS
SK-MEL-28 melanoma = tested on: SK-MEL-28 melanoma
CAKI-1 renal = tested on: CAKI-1 renal
NCI-H522 lung = tested on: NCI-H522 lung
NCI/ADR-RES ovarian = tested on: NCI/ADR-RES ovarian
HOP-62 NSCLC = tested on: HOP-62 NSCLC
SF-539 CNS = tested on: SF-539 CNS
U251 CNS = tested on: U251 CNS
HCT-116 colon = tested on: HCT-116 colon
UACC-62 melanoma = tested on: UACC-62 melanoma
LOX IMVI melanoma = tested on: LOX IMVI melanoma
TK-10 renal = tested on: TK-10 renal
OVCAR-3 ovarian = tested on: OVCAR-3 ovarian
MALME-3M melanoma = tested on: MALME-3M melanoma
SK-MEL-2 melanoma = tested on: SK-MEL-2 melanoma
MCF7 breast = tested on: MCF7 breast
MDA-MB-435 = tested on: MDA-MB-435
RXF 393 renal = tested on: RXF 393 renal
ACHN renal = tested on: ACHN renal
HOP-92 NSCLC = tested on: HOP-92 NSCLC
K-562 leukemia = tested on: K-562 leukemia
HT29 colon = tested on: HT29 colon
HCC-2998 colon = tested on: HCC-2998 colon
OVCAR-4 ovarian = tested on: OVCAR-4 ovarian
UO-31 renal = tested on: UO-31 renal
A498 renal = tested on: A498 renal
CCRF-CEM leukemia = tested on: CCRF-CEM leukemia
DU-145 prostate = tested on: DU-145 prostate
SW-620 colon = tested on: SW-620 colon
OVCAR-8 ovarian = tested on: OVCAR-8 ovarian
SF-295 CNS = tested on: SF-295 CNS
SN12C renal = tested on: SN12C renal
RPMI-8226 leukemia = tested on: RPMI-8226 leukemia
T-47D breast = tested on: T-47D breast
SNB-75 CNS = tested on: SNB-75 CNS
A549 NSCLC = tested on: A549 NSCLC
NCI-H226 lung = tested on: NCI-H226 lung
BT-549 breast = tested on: BT-549 breast
M14 melanoma = tested on: M14 melanoma
OVCAR-5 ovarian = tested on: OVCAR-5 ovarian
SR leukemia = tested on: SR leukemia
UACC-257 melanoma = tested on: UACC-257 melanoma
KM12 colon = tested on: KM12 colon
IGROV1 ovarian = tested on: IGROV1 ovarian
PC-3 prostate = tested on: PC-3 prostate
786-0 renal = tested on: 786-0 renal
NCI-H460 lung = tested on: NCI-H460 lung
MOLT-4 leukemia = tested on: MOLT-4 leukemia
SF-268 CNS = tested on: SF-268 CNS
NCI-H23 lung = tested on: NCI-H23 lung
HL-60(TB) leukemia = tested on: HL-60(TB) leukemia
HCT-15 colon = tested on: HCT-15 colon
SK-MEL-5 melanoma = tested on: SK-MEL-5 melanoma
SK-OV-3 ovarian = tested on: SK-OV-3 ovarian
HS 578T breast = tested on: HS 578T breast
COLO 205 colon = tested on: COLO 205 colon

Work on `COc1ccc(C2CC(c3cc(Cl)c(C)cc3O)=NN2c2ccc(S(N)(=O)=O)cc2)cc1OC` (stereo unspecified) yielded a GI50 (EKVX NSCLC) of 4.15 µM, a TGI (EKVX NSCLC) greater than 100 µM and a GI50 (MDA-MB-231 breast) of 3.81 µM. The TGI (MDA-MB-231 breast) was 12.5 µM, the GI50 (SNB-19 CNS) was 5.53 µM and the TGI (SNB-19 CNS) was 89.3 µM. For the same molecule, the GI50 (SK-MEL-28 melanoma) was 4.29 µM, the TGI (SK-MEL-28 melanoma) was 17.7 µM and the GI50 (CAKI-1 renal) was 2.78 µM. It also gave a TGI (CAKI-1 renal) greater than 100 µM, a GI50 (NCI-H522 lung) of 2.95 µM and a TGI (NCI-H522 lung) of 9.61 µM. The GI50 (NCI/ADR-RES ovarian) was 3.39 µM, the TGI (NCI/ADR-RES ovarian) was 14.1 µM and the GI50 (HOP-62 NSCLC) was 3.92 µM. It also gave a TGI (HOP-62 NSCLC) of 14.1 µM, a GI50 (SF-539 CNS) of 2.1 µM and a TGI (SF-539 CNS) of 4.75 µM. The GI50 (U251 CNS) was 3.71 µM, the TGI (U251 CNS) was 14 µM and the GI50 (HCT-116 colon) was 1.72 µM. For the same molecule, the TGI (HCT-116 colon) was 4.36 µM, the GI50 (UACC-62 melanoma) was 3.13 µM and the TGI (UACC-62 melanoma) was 12.9 µM. For the same molecule, the GI50 (LOX IMVI melanoma) was 3.35 µM, the TGI (LOX IMVI melanoma) was 11 µM and the GI50 (TK-10 renal) was 3.97 µM. The TGI (TK-10 renal) was 18.4 µM, the GI50 (OVCAR-3 ovarian) was 3.37 µM and the TGI (OVCAR-3 ovarian) was 9.8 µM. For the same molecule, the GI50 (MALME-3M melanoma) was 3.65 µM, the TGI (MALME-3M melanoma) was 24.6 µM and the GI50 (SK-MEL-2 melanoma) was 5.87 µM. The TGI (SK-MEL-2 melanoma) was 32.7 µM, the GI50 (MCF7 breast) was 3.07 µM and the TGI (MCF7 breast) was 13.6 µM. For the same molecule, the GI50 (MDA-MB-435) was 3.97 µM, the TGI (MDA-MB-435) was 24 µM and the GI50 (RXF 393 renal) was 2.88 µM. It also gave a TGI (RXF 393 renal) of 7.52 µM, a GI50 (ACHN renal) of 3.15 µM and a TGI (ACHN renal) of 12.2 µM. For the same molecule, the GI50 (HOP-92 NSCLC) was 1.81 µM, the TGI (HOP-92 NSCLC) was 7.42 µM and the GI50 (K-562 leukemia) was 3.18 µM. It also gave a TGI (K-562 leukemia) greater than 100 µM, a GI50 (HT29 colon) of 2.24 µM and a TGI (HT29 colon) of 6.48 µM. It also gave a GI50 (HCC-2998 colon) of 2.72 µM, a TGI (HCC-2998 colon) of 7.25 µM and a GI50 (OVCAR-4 ovarian) of 4.18 µM. It also gave a TGI (OVCAR-4 ovarian) greater than 100 µM, a GI50 (UO-31 renal) of 3.3 µM and a TGI (UO-31 renal) greater than 100 µM. The GI50 (A498 renal) was 3.98 µM, the TGI (A498 renal) was 24.7 µM and the GI50 (CCRF-CEM leukemia) was 5.35 µM. The TGI (CCRF-CEM leukemia) was greater than 100 µM, the GI50 (DU-145 prostate) was 4.49 µM and the TGI (DU-145 prostate) was 21.7 µM. It also gave a GI50 (SW-620 colon) of 4.08 µM, a TGI (SW-620 colon) of 26.6 µM and a GI50 (OVCAR-8 ovarian) of 3.39 µM. The TGI (OVCAR-8 ovarian) was 17.9 µM, the GI50 (SF-295 CNS) was 2.7 µM and the TGI (SF-295 CNS) was 6.24 µM. The GI50 (SN12C renal) was 3.7 µM, the TGI (SN12C renal) was 30 µM and the GI50 (RPMI-8226 leukemia) was 4.1 µM. It also gave a TGI (RPMI-8226 leukemia) greater than 100 µM, a GI50 (T-47D breast) of 3.1 µM and a TGI (T-47D breast) of 13.3 µM. The GI50 (SNB-75 CNS) was 2.7 µM, the TGI (SNB-75 CNS) was 97.2 µM and the GI50 (A549 NSCLC) was 3.54 µM. For the same molecule, the TGI (A549 NSCLC) was 19.7 µM, the GI50 (NCI-H226 lung) was 5.62 µM and the TGI (NCI-H226 lung) was 23.1 µM. The GI50 (BT-549 breast) was 3.03 µM, the TGI (BT-549 breast) was 13.4 µM and the GI50 (M14 melanoma) was 2.61 µM. It also gave a TGI (M14 melanoma) of 7.2 µM, a GI50 (OVCAR-5 ovarian) of 2.25 µM and a TGI (OVCAR-5 ovarian) of 6.36 µM. For the same molecule, the GI50 (SR leukemia) was 2.82 µM, the TGI (SR leukemia) was greater than 100 µM and the GI50 (UACC-257 melanoma) was 4.22 µM. For the same molecule, the TGI (UACC-257 melanoma) was 19.7 µM, the GI50 (KM12 colon) was 3.07 µM and the TGI (KM12 colon) was 8.77 µM. It also gave a GI50 (IGROV1 ovarian) of 2.34 µM, a TGI (IGROV1 ovarian) of 5.46 µM and a GI50 (PC-3 prostate) of 2.61 µM. It also gave a TGI (PC-3 prostate) of 13.7 µM, a GI50 (786-0 renal) of 2.37 µM and a TGI (786-0 renal) of 5.04 µM. For the same molecule, the GI50 (NCI-H460 lung) was 2.5 µM, the TGI (NCI-H460 lung) was 5.85 µM and the GI50 (MOLT-4 leukemia) was 5.29 µM. It also gave a TGI (MOLT-4 leukemia) greater than 100 µM, a GI50 (SF-268 CNS) of 4.74 µM and a TGI (SF-268 CNS) greater than 100 µM. For the same molecule, the GI50 (NCI-H23 lung) was 3.11 µM, the TGI (NCI-H23 lung) was 13.6 µM and the GI50 (HL-60(TB) leukemia) was 3.42 µM. For the same molecule, the TGI (HL-60(TB) leukemia) was greater than 100 µM, the GI50 (HCT-15 colon) was 3.32 µM and the TGI (HCT-15 colon) was 20.2 µM. It also gave a GI50 (SK-MEL-5 melanoma) of 4.28 µM, a TGI (SK-MEL-5 melanoma) of 15.2 µM and a GI50 (SK-OV-3 ovarian) of 4.51 µM. It also gave a TGI (SK-OV-3 ovarian) of 38.3 µM, a GI50 (HS 578T breast) of 3.29 µM and a TGI (HS 578T breast) of 34.3 µM. The GI50 (COLO 205 colon) was 1.93 µM and the TGI (COLO 205 colon) was 3.41 µM.
